These results are taken from patent US5147878A, “Aminoalkoxyphenyl derivatives, process of preparation and compositions containing the same” (Sanofi, priority 1986, dated 1992).

Structures can show the parent of a compound that is named as a salt.

Assay [1] has as its system isoprenaline-induced acceleration in heart rate (anti-β effect). Briefly: Antiadrenergic properties: anti-β effect (reduction of isoprenaline-induced tachycardia). As to conditions: Canis lupus familiaris, iv; 10 mg/kg i.v., dog; known compounds. It counts as in vivo. As for the experimental part:
The object of this test is to determine the capacity of the compounds of the invention for reducing the increase in epinephrine-induced increase in blood-pressure (anti-α effect) and the isoprenaline-induced acceleration in heart rate (anti-β effect), in dogs previously anaesthatized with pentobarbital and atropinized. For each dog, the dose of epinephrine (between 3 and 10 μg/kg) which induced a reproducible increase in the blood-pressure of approximately 133×10^2 Pa and the dose of isoprenaline (1 to 2 μg/kg) which induced a reproducible increase in the heart rate of approximately 70 beats/min. were first determined. The dose of epinephrine and of isoprenaline, determined in this manner, were injected alternately every ten minutes and, after two successive reference responses had been obtained, an amount of the test compound was administered intravenously. The percentage reduction in the acceleration of the heart rate induced by the test compound compared with the reference tachycardia measured previously (approximately 70 beats) was recorded. In both cases, the results of the reduction in blood-pressure or in the heart rate have been expressed as follows: […]

Assay [2] has as its system isolated rat aorta. Briefly: Calcium inhibitory properties: contractile response to potassium-induced depolarization on isolated rat aorta. On the set-up: species or system isolated organ, male Wistar rats. The settings on record: for activity at 1 µM / activity at 0.1 µM / activity at 0.01 µM / activity at 0.001 µM: Rattus norvegicus, 1 h, read-out: % of the maximum contractional effect; for activity at 1 µM: 10^-6 M; for activity at 0.1 µM: 10^-7 M; for % of the maximum contractional effect: 60 min. The source says: It is well established that the depolarization of a smooth muscle membrane by potassium renders the latter permeable to extracellular calcium and induces muscle contraction. Consequently, the measurement of the inhibition of the contractile response to depolarization by potassium, or the measurement of a relaxation of the tonic contraction on potassium depolarization, can represent an evaluation of the power of a compound as an inhibitor of the membrane permeability to Ca^++ ions. The technique used was as follows: The aorta was removed from male Wistar rats weighing approximately 300 g, and cut into strips approximately 40 mm long and 3 mm wide. These fragments were placed in a 25-ml isolated organ trough containing a modified Krebs-bicarbonate solution (112 mM NaCl; 5 mM KCl; 25 mM NaHCO3; 1 mM KH2 PO4; 1.2 mM MgSO4; 2.5 mM CaCl2; 11.5 mM glucose, distilled water to 1000 ml) through which a stream of 5-7% carbon dioxide in oxygen was passed, and maintained at 37° C. The preparation was connected to a force microsensor and the contractile response recorded after amplification on a recorder. A tension of 2 g was applied to the preparation. This tension was maintained for 60 minutes in the modified Krebs-bicarbonate solution, and contractions were then induced by replacing the Krebs-bicarbonate solution by a potassium-Krebs solution (17 mM NaCl; 100 mM KCl; 25 mM NaHCO3; 1 mM KH2 PO4; 1.2 mM MgSO4; 2.5 mM CaCl2; 11.5 mM glucose; distilled water to 1000 ml). When the contractile response of the preparation had become reproducible, a given amount of a compound of the invention was introduced into the bath. Sixty minutes later, a new spasm was induced by potassium depolarization. The results obtained on the aorta used in the experiment were then expressed as a percentage of the maximum contractional effect before incubation with the test substance. By way of examples, the results which follow were obtained, the compounds of formula (1) being in the form of the base, hydrochloride or oxalate.

With `CCCCN(CCCC)CCCOc1ccc(C(=O)c2c(CC)cn3ccccc23)cc1` [Compound F, reference compound], in assay [1], the inhibition in vivo (in general, the drop in the measured response relative to a control, in per cent) at 10 mg/kg was 0%.
For the compound `CC(C)c1c(S(=O)(=O)c2ccc(OCCCNC(C)(C)C)cc2)c2ccccc2n1C` [Ex. 112, 1-methyl-2-isopropyl-3-[4-{3-(tert-butylamino)propyloxy}benzenesulphonyl]indole], in assay [2], the activity at 1 µM was found to be 8.1% and the activity at 0.1 µM was determined as 51.7%. For the same compound, in assay [2] (10^-8 M), the activity at 0.01 µM came out at 84.5%.
With `COc1ccc(CCN(C)CCCOc2ccc(S(=O)(=O)c3c(C(C)C)c4ccccc4n3C)cc2)cc1OC` [Ex. 113, 1-methyl-3-isopropyl-2-[4-{3-[N-methyl-N-(3,4-dimethoxy-β-phenethyl)amino]propyloxy}benzenesulphonyl]indole acid oxalate], in assay [2] (10^-8 M), the activity at 0.01 µM was found to be 41.1%.
For the compound `COc1ccc(CCN(C)CCCOc2ccc(S(=O)(=O)c3ccccc3C(C)C)cc2)cc1OC` [Ex. 114, 2-isopropyl-1-[4-{3-[N-methyl-N-(3,4-dimethoxy-β-phenethyl)amino]propyloxy}benzenesulphonyl]benzene acid oxalate], in assay [2], the activity at 1 µM was determined as 3.7% and the activity at 0.1 µM stood at 21.7%. For the same compound, the activity at 0.01 µM in assay [2] (10^-8 M) amounted to 59.3%. The activity at 0.001 µM in assay [2] (10^-9 M) was 93.3%.
Take `CCCCN(CCCC)CCCOc1ccc(S(=O)(=O)c2ccccc2C(C)C)cc1` [Ex. 115, 2-Isopropyl-1-{4-[3-(di-n-butylamino)propyloxy]benzenesulphonyl}benzene acid oxalate]: the activity at 0.1 µM in assay [2] is 43.2%. In addition, the activity at 0.001 µM in assay [2] (10^-9 M) was determined as 89.1%.
For `CCc1ccccc1S(=O)(=O)c1ccc(OCCCN(C)CCc2ccc(OC)c(OC)c2)cc1` [Ex. 116, 2-Ethyl-1-[4-{3-[N-methyl-N-(3,4-dimethoxy-β-phenethyl)amino]propyloxy}benzenesulphonyl]benzene acid oxalate], in assay [2], the activity at 0.1 µM amounted to 6%. Moreover, in assay [2] (10^-8 M), the activity at 0.01 µM was determined as 66.1%. In assay [2] (10^-9 M), the activity at 0.001 µM came out at 84.8%.
As to `CCCCN(CCCC)CCCOc1ccc(S(=O)(=O)c2ccccc2CC)cc1` [Ex. 117, 2-Ethyl-1-{4-[3-(di-n-butylamino)propyloxy]benzenesulphonyl}benzene acid oxalate], in assay [2], the activity at 1 µM was 4.2% and the activity at 0.1 µM worked out at 43.4%. The activity at 0.01 µM in assay [2] (10^-8 M) is 85.1%.
For `CC(C)c1ccccc1S(=O)(=O)c1ccc(OCCCNC(C)(C)C)cc1` [Ex. 118, 2-isopropyl-1-[4-{3-(tert-butylamino)propyloxy}benzenesulphonyl]benzene acid oxalate] the same measures were 2.7%, 52.2% and 92.3%.
Take `CCc1ccccc1S(=O)(=O)c1ccc(OCCCNC(C)(C)C)cc1` [Ex. 119, 2-ethyl-1-[4-{3-(tert-butylamino)propyloxy}benzenesulphonyl]benzene acid oxalate]: in assay [2], the activity at 1 µM was 32% and the activity at 0.1 µM turned out to be 83.3%.
As for `CCc1sc2c(c1S(=O)(=O)c1ccc(OCCCN(C)CCc3ccc(OC)c(OC)c3)cc1)CN(Cc1ccccc1Cl)CC2` [Ex. 120, 5-(2-chloro-benzyl)-2-ethyl-3-[4-{3-[N-methyl-N-(3,4-dimethoxy-β-phenethyl)amino]propyloxy}benzenesulphonyl]-4,5,6,7-tetrahydrothieno[3,2-c]pyridine oxalate], in assay [2], the activity at 1 µM worked out at 59.8% and the activity at 0.1 µM worked out at 68.7%. Further, the activity at 0.01 µM in assay [2] (10^-8 M) was 91.4%.
For `CCCCN(CCCC)CCCOc1ccc(S(=O)(=O)c2c(CC)sc3c2CN(Cc2ccccc2Cl)CC3)cc1` [Ex. 121, 5-(2-chloro-benzyl)-2-ethyl-3-{4-[3-(di-n-butylamino)propyloxy]benzenesulphonyl}-4,5,6,7-tetrahydro-thieno[3,2-c]pyridine dioxalate], in assay [2], the activity at 1 µM was 66.2% and the activity at 0.1 µM was found to be 77.5%. Moreover, the activity at 0.01 µM in assay [2] (10^-8 M) turned out to be 85.7%.
For the compound `CC(C)c1cc2ccccn2c1S(=O)(=O)c1ccc(OCCCNC(C)(C)C)cc1` [Ex. 122, 2-isopropyl-3-{4-[3-tert-butylamino)propyloxy]benzenesulphonyl}indolizine hydrochloride], in assay [2], the activity at 1 µM was determined as 5.4% and the activity at 0.1 µM worked out at 28.1%. The activity at 0.01 µM in assay [2] (10^-8 M) turned out to be 76.1%. Besides, in assay [2] (10^-9 M), the activity at 0.001 µM worked out at 92.5%.
As for `CCCCN(CCCC)CCCOc1ccc(S(=O)(=O)c2c(CC)cc3ccccn23)cc1` [Ex. 123, 2-ethyl-3-{4-[3-(di-n-butylamino)propyloxy]benzenesulphonyl}indolizine acid oxalate], in assay [2], the activity at 1 µM worked out at 5.8% and the activity at 0.1 µM was 16.8%. Besides, the activity at 0.01 µM in assay [2] (10^-8 M) turned out to be 54.6%. Moreover, in assay [2] (10^-9 M), the activity at 0.001 µM was found to be 75.3%.
For the compound `CCCCN(CCCC)CCCOc1ccc(S(=O)(=O)c2ncsc2-c2ccccc2)cc1` [Ex. 124, 4-{4-[3-(di-n-butylamino)propyloxy]benzenesulphonyl}-5-phenyl-thiazole acid oxalate], in assay [2], the activity at 1 µM was 13.7% and the activity at 0.1 µM was 66.7%. Moreover, the activity at 0.01 µM in assay [2] (10^-8 M) stood at 90.6%.
For `CCCCN(CCCC)CCCOc1ccc(S(=O)(=O)c2cn[nH]c2C(C)C)cc1` [Ex. 125, 4-{4-[3-(di-n-butylamino)propyloxy]benzenesulphonyl}-5-isopropyl-pyrazole acid oxalate], in assay [2], the activity at 1 µM stood at 79.3% and the activity at 0.1 µM was found to be 90.4%. Further, the “% of the maximum contractional effect” value in assay [2] (head printed "10^-" (exponent missing; first of three columns before 10^-6 M)) worked out at 38.6%.
On to `CCCCN(CCCC)CCCOc1ccc(S(=O)(=O)c2c(-c3ccccc3)noc2C(C)C)cc1` [Ex. 126, 4-{4-[3-(di-n-butylamino)propyloxy]benzenesulphonyl}-5-isopropyl-3-phenyl-isoxazole], for which, in assay [2], the activity at 1 µM was 10% and the activity at 0.1 µM came out at 38.7%. Further, in assay [2] (10^-8 M), the activity at 0.01 µM was 75.8%.
For `CCCCN(CCCC)CCCOc1ccc(S(=O)(=O)c2ccc3ccccc3c2)cc1` [Ex. 127, 2-{4-[3-(di-n-butylamino)propyloxy]benzenesulphonyl}-naphthalene acid oxalate], in assay [2], the activity at 1 µM stood at 50.7% and the activity at 0.1 µM came to 86.2%.
`COc1cc(CCN(C)CCCOc2ccc(S(=O)(=O)c3c(C(C)C)cn4ccccc34)cc2)cc(OC)c1OC` [Ex. 134, 2-isopropyl-1-[4-{3-[N-methyl-N-(3,4,5-trimethoxy-β-phenethyl)amino]propyloxy}benzenesulphonyl]indolizine acid oxalate]: the activity at 0.1 µM in assay [2] turned out to be 18.9%. In addition, the activity at 0.01 µM in assay [2] (10^-8 M) was determined as 21.4%. Moreover, the activity at 0.001 µM in assay [2] (10^-9 M) worked out at 65.7%.
For the compound `COc1cc(CCN(C)CCCOc2ccc(S(=O)(=O)c3c(C(C)C)cn4ccccc34)cc2)cc(C)c1OC.O=C(O)C(=O)O` [Ex. 135, 2-isopropyl-1-[4-{3-[N-methyl-N-(3,4-dimethoxy-5-methyl-β-phenethyl)amino]propyloxy}benzenesulphonyl]indolizine acid oxalate], the “% of the maximum contractional effect” value in assay [2] (10^-8 M, 0.01 µM) was 21.1%; in assay [2] (10^-9 M, 0.001 µM), 58.5%; in assay [2] (10^-10 M, 0.0001 µM), 78.9%.
With `COc1cc(CCNCCCOc2ccc(S(=O)(=O)c3c(C(C)C)cn4ccccc34)cc2)cc(C)c1OC.O=C(O)C(=O)O` [Ex. 139, 2-isopropyl-1-[4-{3-[N-(3,4-dimethoxy-5-methyl-β-phenethyl)amino]propyloxy}benzenesulphonyl]-indolizine acid oxalate], the “% of the maximum contractional effect” value in assay [2] (10^-8 M, 0.01 µM) was 49%; in assay [2] (10^-9 M, 0.001 µM), 89%.
